According to article PMC6832239, “The Effects of a Novel Series of KTTKS Analogues on Cytotoxicity and Proteolytic Activity” (Molecules, 2019):
Entries after “also recorded” stand apart in the source; their conditions may differ. Read-outs that look alike come from different tables or passages of the source. Residues, ends and D or L forms follow the SMILES beside them.

Key:
plasmin [1] = target: T1, plasmin (Homo sapiens, UniProt P00747); test: Amidolytic activity of plasmin (chromogenic substrate H-D-Val-Leu-Lys-pNA); type: biochemical
T1 construct: purchased Chromogenix (Milano, Italy)
Experimental: (§1) The determination of amidolytic activity was performed as previously described by Okada. A detailed description of the method is given below: 0.2 mL of the examined peptides (0.15 M NaCl as contro), a buffer, and 0.1 mL of enzyme solution were mixed. The final peptide concentrations were: 0.2 mM, 2 mM, and 20 mM. The mixture was incubated at 37 °C for 3 min; then the synthetic substrate solution was added in the same buffer. After 20 min of incubation, the reaction was stopped by adding 0.1 mL of 50% acetic acid and the absorbance of the released p-nitroaniline was measured at 405 nm. The mean values from three independent experiments done in duplicate are presented. A method error of 5% was adopted as statistical error. IC50 value was considered as the concentration of inhibitor that reduces absorbance by 50%, compared with absorbance measured under the same conditions without an inhibitor. IC50 was calculated mathematically by extrapolation using a linear plot. IC50 values are presented in Table 1 and Table 2, and graphically in Figure 1.
(§2) The buffers and the enzyme solutions included: • Tris buffer—0.6 mL (pH 8.8), enzyme: urokinase (50 units/mL), synthetic substrate: pyro-Glu-Gly-Arg-pNA·HCl (0.1 mL, 3 mM); • Tris buffer—0.5 mL (pH 8.4), enzyme: thrombin (1 units/mL), synthetic substrate: H-D-Phe-Pip-Arg-pNA (0.2 mL, 0.75 mM); • Tris buffer—0.5 mL (pH 7.4), enzyme: plasmin (0.4 units/mL), synthetic substrate: H-D-Val-Leu-Lys-pNA (0.2 mL, 3 mM); • Borate buffer—0.5 mL (pH 7.5), enzyme: trypsin (0.4 units/mL), synthetic substrate: Bzl-L-Arg-pNA·HCl (0.2 mL, 8 mM); • Tris buffer—0.6 mL (pH 9.0), enzyme: kallikrein (3 units/mL), synthetic substrate: H-D-Val-Leu-Arg-pNA·2HCl (0.1 mL, 75 mM); • Tris buffer—0.6 mL (pH 8.4), enzyme: t-PA ([…]), synthetic substrate: H-D-Ile-Pro-Arg-pNA (0.1 mL, 10 mM) • Tris buffer—0.6 mL (pH 9.0), enzyme: chymotrypsin (0.4 units/mL), synthetic substrate: Suc-Phe-pNA (0.2 mL, 8 mM)

urokinase [2] = target: T2, urokinase (Homo sapiens, UniProt P00749); test: Amidolytic activity of urokinase (chromogenic substrate pyro-Glu-Gly-Arg-pNA); type: biochemical; conditions: amidolytic activity; Tris pH 8.8, 37 °C; IC50 by extrapolation using a linear plot; error 5%; read-out: IC50 Urokinase
T2 construct: purchased Sigma (Schnelldorf, Germany)
Experimental: as §1, §2

thrombin = target: T3, thrombin (Bos taurus, UniProt P00735); test: Amidolytic activity of thrombin (chromogenic substrate H-D-Phe-Pip-Arg-pNA); type: biochemical; conditions: amidolytic activity; Tris pH 8.4, 37 °C; IC50 by extrapolation using a linear plot; error 5%; read-out: IC50 Thrombin
T3 construct: purchased Lubelska Wytwórnia Szczepionek (Lublin, Poland)
Experimental: The determination of amidolytic activity was performed as previously described by Okada. A detailed description of the method is given below: 0.2 mL of the examined peptides (0.15 M NaCl as contro), a buffer, and 0.1 mL of enzyme solution were mixed. The final peptide concentrations were: 0.2 mM, 2 mM, and 20 mM. The mixture was incubated at 37 °C for 3 min; then the synthetic substrate solution was added in the same buffer. […] The mean values from three independent experiments done in duplicate are presented. A method error of 5% was adopted as statistical error. […] IC50 was calculated mathematically by extrapolation using a linear plot.

[3] = Viability of fibroblast cells, MTT assay; type: cell-based, Human; conditions: human, primary dermal fibroblast cells, 24 h, MTT, ± 2, read-out: Viability of fibroblast cells
Experimental: (§3) Viability of fibroblast cells was examined with the use of the MTT assay. MTT, a yellow tetrazole, is reduced to purple formazan only in living cells. Absorbance of the coloured solution was measured by a spectrophotometer.
(§4) These studies were performed on primary dermal fibroblasts cells. The cells were maintained in DMEM supplemented with 10% fetal bovine serum (FBS), 2 mM glutamin, 50 U/mL penicillin and […] streptomycin at 37 °C in a 5% CO2 incubator. For experiments, cells cultures were plated at a density of 1 × 10^6/well in six-well culture plates (Costar, St. Louis, MO, USA) in 2 mL of growth medium. Cells reached about 80% of confluency at day 2 were used for the assays.
(§5) Toxicity of the tested substances was determined using an MTT [3-(4,5-dimethylthiazol-2-yl)-2,5-diphenyltetrazolium bromide)] assay. Palmitoyl and lipoyl peptides were dissolved in DMSO (dimethyl sulfoxide), the other peptides in DMEM, and added to the cell culture medium. Simultaneously, the same concentrations of DMSO without peptides were added to cells, serving as controls. The final peptide concentrations were: 1 μM, 10 μM, and 100 μM. After 24 h incubation, the cells cultured with the tested compounds were washed with phosphate-buffered saline (PBS) and then incubated for 4 h in 2 mL of MTT solution (5 mg/mL). After removing the medium, the cells were lysed in 200 μL of DMSO with 20 μL of Sorensen’s buffer (pH 10.5, 0.1 mol/L glycine with 0.1 mol/L NaCl). The absorbance of converted dye in living cells was measured at a wavelength of 570 nm. The mean values ± SD from three independent experiments done in duplicate are presented.

[4] = system: primary dermal fibroblasts cells; test: Viability of fibroblast cells, MTT assay; type: cell-based, Human; conditions: MTT, 1-100 μM, 24 h
Experimental: as §3, §4, §5

fibroblast cells = test: DNA biosynthesis, [3H] thymidine incorporation in fibroblasts; type: cell-based, Human; conditions: for DNA biosynthesis: 24 h, ± 2
Experimental: In the radioactive method of DNA measurement in the liquid sample, the radioactive activity of the sample was measured. This technique involves mixing a radioactive material with a scintillation fluid/liquid (which contains a scintillator), resulting in photon emission. This emission is counted by a suitable detector.
To examine the effect of the studied compounds on DNA biosynthesis of fibroblast cells, they were plated in 24-well tissue culture dishes at 1 × 10^5 cells per well with 1 mL of growth medium. The plates were incubated after 48 h with the examined peptides and 0.5 μCi of [^3H] thymidine (6.7 Ci/mmol) at 37 °C. The final peptide concentrations were: 10 μM, 50 μM, and 100 μM. After 24 h incubation, the cells were rinsed with PBS three times and twice with 5% trichloroacetic acid. To measure the radioactivity incorporated into DNA, the cells were solubilized with 1 mL of 0.1 M sodium hydroxide containing 1% SDS and an addition of scintillation liquid (9 mL) (https://www.perkinelmer.com/pl/category/scintillation-cocktails). Radioactivity was determined in a scintillation counter, i.e., Liquid Scintillation Analyzer Tri-Carb 2810 TR (Perkin Elmer, Waltham, MA USA)) with Quanto Smart TM software (Perkin Elmer).

Fibroblasts = test: Collagen biosynthesis, 5[3H]-proline incorporation in fibroblasts; type: cell-based, Human; conditions: 24 h, ± 2
Experimental: In collagen biosynthesis assays cells were counted in a haemocytometer and incorporation of a radioactive precursor 5[^3H]-proline into collagen was measured. Total protein synthesis was calculated from the sum of radioactivity of collagenase-resistant proteins and collagen digest.
Fibroblasts were cultured in six-well plates until confluence. Then they were incubated for 24 h in growth medium in the absence or presence of the tested peptides and 5[^3H]-proline (5 µCi/mL, 28 Ci/mM). The final peptide concentrations were: 10 μM, 50 μM and 100 μM. In accordance with the method proposed by Peterkofsky and Diegelmann, incorporation of the radioactive precursor into collagen was determined by digesting the proteins with purified Clostridium histolyticum collagenase. Finally, the monolayers were washed with sterile 10mM PBS, pH 7.4 four times, and cell membranes were disrupted using a sonicator. Aliquots of the cell homogenate were removed for protein measurement using the BCA™ Protein Assay Kit (Pierce, Waltham, MA USA). The results are shown as combined values for cell plus medium fractions.

collagen biosynthesis = system: collagen biosynthesis; design: method as in PMID 24090916; conditions: single concentration of 0.5 mM; cited from earlier work
collagen synthesis = system: collagen synthesis; design: method as in PMID 19268583; conditions: cited from earlier work
[5] = design: method as in PMID 25143811; conditions: stratum corneum, epidermis, dermis; cited from earlier work
face wrinkles = system: face wrinkles; design: method as in PMID 19570099; conditions: oil-in-water cream twice daily for 8 and 12 weeks; cited from earlier work
human dermal fibroblasts = system: human dermal fibroblasts; design: method as in PMID 23320752; conditions: cited from earlier work
plasmin [6] = target: T1, plasmin; design: method as in PMID 27434836; conditions: competitive and reversible inhibitor; cited from earlier work
urokinase [7] = target: T2, urokinase; design: method as in PMID 27434836; conditions: competitive and reversible inhibitor; cited from earlier work
tryptase = system: tryptase; design: method as in PMID 27434836; conditions: selectivity; cited from earlier work
kallikrein 5 = system: kallikrein 5; design: method as in PMID 27434836; conditions: selectivity; cited from earlier work
kallikrein 7 = system: kallikrein 7; design: method as in PMID 27434836; conditions: selectivity; cited from earlier work
neutrophil elastase = system: neutrophil elastase; design: method as in PMID 27434836; conditions: selectivity; cited from earlier work
[8] = amidolytic activity, Tris pH 7.4, 37 °C, IC50 by extrapolation using a linear plot, error 5%, read-out: IC50 Plasmin

T1 sequence (P00747 581-810 limits assumed): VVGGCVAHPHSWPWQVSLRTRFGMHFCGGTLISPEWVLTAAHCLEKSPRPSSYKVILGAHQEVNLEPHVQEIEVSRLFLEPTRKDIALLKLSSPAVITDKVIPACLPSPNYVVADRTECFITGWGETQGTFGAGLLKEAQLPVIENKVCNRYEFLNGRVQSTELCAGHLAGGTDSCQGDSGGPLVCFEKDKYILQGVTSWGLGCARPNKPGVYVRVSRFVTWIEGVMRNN
T1 sequence (P00747 97-580 partner limits assumed): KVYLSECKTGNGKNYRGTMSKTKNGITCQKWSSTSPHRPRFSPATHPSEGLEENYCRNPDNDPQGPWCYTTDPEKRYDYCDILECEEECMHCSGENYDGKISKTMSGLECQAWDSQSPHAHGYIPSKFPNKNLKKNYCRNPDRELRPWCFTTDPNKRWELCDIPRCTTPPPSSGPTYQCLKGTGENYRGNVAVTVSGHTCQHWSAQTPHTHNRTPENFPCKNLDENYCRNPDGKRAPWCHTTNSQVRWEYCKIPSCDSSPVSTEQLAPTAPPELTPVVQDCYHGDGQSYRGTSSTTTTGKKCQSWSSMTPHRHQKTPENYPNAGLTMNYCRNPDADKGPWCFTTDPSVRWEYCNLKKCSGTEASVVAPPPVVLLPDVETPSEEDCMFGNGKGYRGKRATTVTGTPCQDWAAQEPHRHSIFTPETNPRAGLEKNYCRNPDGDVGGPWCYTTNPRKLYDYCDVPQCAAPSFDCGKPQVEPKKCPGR

Molecule	IC50 (plasmin [1]; [8])	IC50 (urokinase [2])	IC50 (thrombin)	viability at 24 h, 1 µmol/L [3]	viability at 24 h, 10 µmol/L [3]	viability at 24 h, 100 µmol/L [3]	cytotoxicity / cell growth effect on fibroblasts [4]	DNA biosynthesis (fibroblast cells; 10 µmol/L)	DNA biosynthesis (fibroblast cells; 50 µmol/L)	DNA biosynthesis (fibroblast cells; 100 µmol/L)	Collagen biosynthesis (Fibroblasts; 50 µmol/L)	Collagen biosynthesis (Fibroblasts; 100 µmol/L)	increase of collagen synthesis (collagen synthesis)	other results
C[C@@H](O)[C@H](NC(=O)[C@H](CCCCN)NC(=O)CCCCC1CCSS1)C(=O)N[C@H](C(=O)N[C@@H](CCCCN)C(=O)N[C@@H](CO)C(=O)O)[C@@H](C)O (mixture of isomers) [Peptide 3, Lip-Lys-Thr-Thr-Lys-Ser-OH]	470 ± 23 µM	–	12800 ± 640 µM	94%	81%	81%	did not exhibit fibroblast growth	–	–	–	–	–	–	increase of collagen biosynthesis (collagen biosynthesis): over 150%
CCCCCCCCCCCCCCCC(=O)N[C@@H](CCCCN)C(=O)N[C@H](C(=O)N[C@H](C(=O)N[C@@H](CCCCN)C(=O)N[C@@H](CO)C(=O)O)[C@@H](C)O)[C@@H](C)O [Peptide 4, Pal-Lys-Thr-Thr-Lys-Ser-OH, reference compound] (HELM PEPTIDE1{[CCCCCCCCCCCCCCCC(=O)[*:2]].K.T.T.K.S}$$$$V2.0)	–	–	–	97%	91%	85%	did not exhibit fibroblast growth	–	–	–	–	–	over 150%	retention in skin layers [5]: retained in different skin layers; length of wrinkles, age spots, skin texture versus placebo cream (face wrinkles): markedly improved; collagen production (human dermal fibroblasts): stimulates collagen production in a concentration-dependent manner
H-KTTKS-OH [Peptide 1, H-Lys-Thr-Thr-Lys-Ser-OH, reference compound]	280 ± 14 µM	–	7810 ± 390 µM	95%	82%	80%	did not exhibit fibroblast growth	–	–	–	–	–	no such effect	–
N=C(N)c1ccc(CNC(=O)C(CCc2ccccc2)NC(=O)[C@@H](CO)NS(=O)(=O)Cc2ccccc2)cc1 (stereo partly drawn) [BSFAB, benzylsulfonyl-D-Ser-homoPhe-(4-amidinobenzylamide)]	–	–	–	–	–	–	–	–	–	–	–	–	–	Ki (plasmin [6]): 0.029 µM; Ki (urokinase [7]): 0.025 µM; inhibition of tryptase (tryptase): did not inhibit; inhibition of kallikrein 5 (kallikrein 5): did not inhibit; inhibition of kallikrein 7 (kallikrein 7): did not inhibit; inhibition of neutrophil elastase (neutrophil elastase): did not inhibit

The next lines start with results.

IC50 (plasmin [1]; [8])	IC50 (urokinase [2])	IC50 (thrombin)	Molecule	viability at 24 h, 1 µmol/L [3]	viability at 24 h, 10 µmol/L [3]	viability at 24 h, 100 µmol/L [3]	cytotoxicity / cell growth effect on fibroblasts [4]	DNA biosynthesis (fibroblast cells; 10 µmol/L)	DNA biosynthesis (fibroblast cells; 50 µmol/L)	DNA biosynthesis (fibroblast cells; 100 µmol/L)	Collagen biosynthesis (Fibroblasts; 50 µmol/L)	Collagen biosynthesis (Fibroblasts; 100 µmol/L)	increase of collagen synthesis (collagen synthesis)	other results
720 ± 36 µM	17600 ± 880 µM	4650 ± 233 µM	H-KTTRS-NH2 [Peptide 13, H-Lys-Thr-Thr-Arg-Ser-NH2]	121%	139%	145%	exhibited cell growth effects; also recorded: showed proliferative effect; also recorded: exhibited the effect of cell growth	84 % of Control	86 % of Control	74 % of Control	155 % of Control	49 % of Control	–	IC50 (plasmin [1]; converted from IC50 of Table 1, read-out: -logIC50 Plasmin (converted)): 708 µM
5450 ± 270 µM	2360 ± 120 µM	810 ± 41 µM	Ac-RTTKS-OH [Peptide 26, Ac-Arg-Thr-Thr-Lys-Ser-OH]	112%	137%	150%	exhibited cell growth effects; also recorded: showed proliferative effect; also recorded: exhibited the effect of cell growth	126 % of Control	112 % of Control	128 % of Control	77 % of Control	108 % of Control	–	DNA synthesis (fibroblast cells; 10, 50, 100 μM): increased DNA synthesis was observed at all concentrations; Collagen biosynthesis (Fibroblasts; 10 µmol/L): 166 % of Control
